The values below come from ChEMBL document CHEMBL4622864, “Synthesis and biological evaluation of quinoxaline derivatives as specific c-Met kinase inhibitors” (Bioorg Med Chem Lett, 2020).

Series [1] has as its target Macrophage colony-stimulating factor 1 receptor (Homo sapiens) (UniProt P07333). As to the kind of experiment: Inhibition of CSF1R (unknown origin) at 100 nM relative to control.
For a further series, the target named is CYP2D6 (Homo sapiens, UniProt P10635). In words: Inhibition of CYP2D6 (unknown origin) at 10 uM relative to control. In kind it is ADME.
For series [2], the target named is Tyrosine-protein kinase Lck (Homo sapiens) (UniProt P06239). As to the kind of experiment: Inhibition of LCK (unknown origin) at 100 nM relative to control.
In series [3] the target is Platelet-derived growth factor receptor alpha (Homo sapiens) (UniProt P16234). In words: Inhibition of PDGFRalpha (unknown origin) at 100 nM relative to control.
In series [4] the target is Fibroblast growth factor receptor 2 (Homo sapiens) (UniProt P21802). As to the kind of experiment: Inhibition of FGFR2 (unknown origin) at 100 nM relative to control.
Series [5] deals with Proto-oncogene tyrosine-protein kinase receptor Ret (Homo sapiens) (UniProt P07949). In words: Inhibition of RET (unknown origin) at 100 nM relative to control.
Series [6] addresses Platelet-derived growth factor receptor alpha (Homo sapiens) (UniProt P16234). In words: Inhibition of PDGFRalpha (unknown origin) at 10 nM relative to control.
Series [7] addresses Angiopoietin-1 receptor (Homo sapiens) (UniProt Q02763). In words: Inhibition of human TIE2 at 100 nM relative to control.
Series [8] addresses ALK tyrosine kinase receptor (Homo sapiens) (UniProt Q9UM73). As to the kind of experiment: Inhibition of ALK (unknown origin) at 10 nM relative to control.
For series [9], the target named is T1, Hepatocyte growth factor receptor (Homo sapiens, UniProt P08581). As to the kind of experiment: Inhibition of human c-MET at 10 nM relative to control.
T1 sequence (P08581 whole entry): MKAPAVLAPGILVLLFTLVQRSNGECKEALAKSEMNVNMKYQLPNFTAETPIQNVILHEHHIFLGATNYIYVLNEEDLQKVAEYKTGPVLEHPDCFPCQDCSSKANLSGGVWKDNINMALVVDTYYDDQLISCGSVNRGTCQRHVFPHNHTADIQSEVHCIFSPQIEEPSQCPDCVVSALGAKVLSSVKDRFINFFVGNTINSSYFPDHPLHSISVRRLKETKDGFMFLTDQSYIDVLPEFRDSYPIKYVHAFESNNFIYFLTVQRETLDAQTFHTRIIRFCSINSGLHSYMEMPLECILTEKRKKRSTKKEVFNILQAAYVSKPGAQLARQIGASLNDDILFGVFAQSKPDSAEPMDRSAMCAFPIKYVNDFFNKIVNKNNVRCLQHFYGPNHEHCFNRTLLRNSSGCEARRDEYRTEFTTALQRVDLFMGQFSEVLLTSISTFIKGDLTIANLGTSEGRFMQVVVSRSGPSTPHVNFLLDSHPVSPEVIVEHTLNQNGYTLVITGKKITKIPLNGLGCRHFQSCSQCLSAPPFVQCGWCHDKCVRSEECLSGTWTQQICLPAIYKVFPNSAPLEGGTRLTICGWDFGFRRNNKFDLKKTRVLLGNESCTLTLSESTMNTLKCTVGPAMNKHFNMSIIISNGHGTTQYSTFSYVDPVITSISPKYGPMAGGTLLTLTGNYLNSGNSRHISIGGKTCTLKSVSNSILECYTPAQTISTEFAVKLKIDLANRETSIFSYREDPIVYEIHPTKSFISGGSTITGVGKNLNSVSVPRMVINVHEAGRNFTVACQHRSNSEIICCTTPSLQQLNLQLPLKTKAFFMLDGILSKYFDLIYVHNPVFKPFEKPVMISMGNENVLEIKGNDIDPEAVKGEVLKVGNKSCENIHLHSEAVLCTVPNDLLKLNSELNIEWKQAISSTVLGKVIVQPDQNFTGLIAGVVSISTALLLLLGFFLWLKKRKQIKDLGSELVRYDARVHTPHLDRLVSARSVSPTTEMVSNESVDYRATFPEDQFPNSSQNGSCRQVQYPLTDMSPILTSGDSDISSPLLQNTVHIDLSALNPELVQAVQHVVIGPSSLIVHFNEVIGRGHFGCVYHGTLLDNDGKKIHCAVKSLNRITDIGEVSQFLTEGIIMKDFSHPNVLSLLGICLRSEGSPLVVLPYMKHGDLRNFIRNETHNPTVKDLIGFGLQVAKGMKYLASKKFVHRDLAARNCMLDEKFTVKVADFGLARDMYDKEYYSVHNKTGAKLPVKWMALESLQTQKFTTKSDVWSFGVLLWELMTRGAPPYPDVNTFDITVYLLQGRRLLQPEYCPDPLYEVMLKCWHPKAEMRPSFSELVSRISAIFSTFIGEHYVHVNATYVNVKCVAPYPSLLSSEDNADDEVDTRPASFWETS
The target of series [10] is T1, Hepatocyte growth factor receptor. As to the kind of experiment: Inhibition of human c-MET at 100 nM relative to control.
For series [11], the target named is Macrophage colony-stimulating factor 1 receptor (Homo sapiens) (UniProt P07333). In words: Inhibition of CSF1R (unknown origin) at 10 nM relative to control.
Series [12] concerns the target Insulin-like growth factor 1 receptor (Homo sapiens) (UniProt P08069). As to the kind of experiment: Inhibition of IGF1R (unknown origin) at 10 nM relative to control.
Series [13] concerns the target Platelet-derived growth factor receptor beta (Homo sapiens) (UniProt P09619). In words: Inhibition of human PDGFRbeta at 100 nM relative to control.
Series [14] deals with Tyrosine-protein kinase ABL1 (Homo sapiens), P00519 [T315I]. As to the kind of experiment: Inhibition of ABL T315I mutant (unknown origin) 10 nM relative to control.
The target of series [15] is Vascular endothelial growth factor receptor 3 (Homo sapiens) (UniProt P35916). In words: Inhibition of VEGFR3 (unknown origin) at 100 nM relative to control.
The nature of series [16]: Metabolic stability in human microsomes assessed as parent compound remaining measured after 30 mins. In kind it is ADME, Microsome. Particulars: read-out: Stability.
Series [17] deals with Angiopoietin-1 receptor (Homo sapiens) (UniProt Q02763). As to the kind of experiment: Inhibition of human TIE2 at 10 nM relative to control.
Sequence of Angiopoietin-1 receptor (Homo sapiens) (Q02763 whole entry): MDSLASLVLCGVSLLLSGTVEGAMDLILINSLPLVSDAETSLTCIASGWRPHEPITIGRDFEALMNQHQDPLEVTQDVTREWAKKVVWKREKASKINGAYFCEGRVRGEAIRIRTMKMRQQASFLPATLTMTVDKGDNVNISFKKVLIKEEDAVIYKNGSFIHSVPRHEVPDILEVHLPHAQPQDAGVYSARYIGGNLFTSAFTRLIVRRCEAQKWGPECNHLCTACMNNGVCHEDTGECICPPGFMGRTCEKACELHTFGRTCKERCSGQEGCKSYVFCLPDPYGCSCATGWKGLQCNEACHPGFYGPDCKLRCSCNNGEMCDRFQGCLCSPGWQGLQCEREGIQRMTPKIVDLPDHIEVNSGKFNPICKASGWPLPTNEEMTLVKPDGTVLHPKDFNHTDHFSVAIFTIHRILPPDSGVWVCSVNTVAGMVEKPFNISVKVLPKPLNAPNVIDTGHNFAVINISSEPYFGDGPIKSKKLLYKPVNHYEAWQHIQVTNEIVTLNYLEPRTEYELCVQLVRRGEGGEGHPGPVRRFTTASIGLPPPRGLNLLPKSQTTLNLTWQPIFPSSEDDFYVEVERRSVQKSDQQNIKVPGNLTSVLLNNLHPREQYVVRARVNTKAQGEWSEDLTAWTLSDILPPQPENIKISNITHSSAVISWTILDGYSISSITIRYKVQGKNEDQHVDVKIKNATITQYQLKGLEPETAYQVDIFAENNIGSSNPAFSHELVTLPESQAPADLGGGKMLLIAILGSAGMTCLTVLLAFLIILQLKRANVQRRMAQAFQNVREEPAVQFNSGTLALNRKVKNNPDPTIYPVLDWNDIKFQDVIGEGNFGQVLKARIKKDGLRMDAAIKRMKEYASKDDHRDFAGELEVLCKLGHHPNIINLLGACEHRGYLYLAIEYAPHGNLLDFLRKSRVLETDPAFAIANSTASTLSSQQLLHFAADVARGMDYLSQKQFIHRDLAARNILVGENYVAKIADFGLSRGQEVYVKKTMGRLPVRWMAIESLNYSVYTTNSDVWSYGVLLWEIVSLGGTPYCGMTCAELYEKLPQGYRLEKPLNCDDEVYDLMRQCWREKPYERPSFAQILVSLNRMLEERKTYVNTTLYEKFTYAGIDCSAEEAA
For series [18], the system named is MKN-45. In words: Antitumor activity against human MKN45 cells xenografted in po dosed nude mouse assessed as tumor growth inhibition administered once daily for 14 days. In kind it is functional, organism-based. On the technique in general: In xenograft studies the graft and the host belong to different species.
The nature of series [19]: Metabolic stability in mouse microsomes assessed as parent compound remaining measured after 30 mins. Particulars: read-out: Stability. In kind it is ADME, Microsome.
The test system of series [20] is MKN-45. As to the kind of experiment: Antiproliferative activity against human MKN45 cells overexpressing c-MET assessed as reduction in cell proliferation. Format: functional, cell-based.
In series [21] the target is Fibroblast growth factor receptor 1 (Homo sapiens) (UniProt P11362). In words: Inhibition of FGFR1 (unknown origin) at 10 nM relative to control.
Sequence of Fibroblast growth factor receptor 1 (Homo sapiens) (P11362 22-822 limits assumed): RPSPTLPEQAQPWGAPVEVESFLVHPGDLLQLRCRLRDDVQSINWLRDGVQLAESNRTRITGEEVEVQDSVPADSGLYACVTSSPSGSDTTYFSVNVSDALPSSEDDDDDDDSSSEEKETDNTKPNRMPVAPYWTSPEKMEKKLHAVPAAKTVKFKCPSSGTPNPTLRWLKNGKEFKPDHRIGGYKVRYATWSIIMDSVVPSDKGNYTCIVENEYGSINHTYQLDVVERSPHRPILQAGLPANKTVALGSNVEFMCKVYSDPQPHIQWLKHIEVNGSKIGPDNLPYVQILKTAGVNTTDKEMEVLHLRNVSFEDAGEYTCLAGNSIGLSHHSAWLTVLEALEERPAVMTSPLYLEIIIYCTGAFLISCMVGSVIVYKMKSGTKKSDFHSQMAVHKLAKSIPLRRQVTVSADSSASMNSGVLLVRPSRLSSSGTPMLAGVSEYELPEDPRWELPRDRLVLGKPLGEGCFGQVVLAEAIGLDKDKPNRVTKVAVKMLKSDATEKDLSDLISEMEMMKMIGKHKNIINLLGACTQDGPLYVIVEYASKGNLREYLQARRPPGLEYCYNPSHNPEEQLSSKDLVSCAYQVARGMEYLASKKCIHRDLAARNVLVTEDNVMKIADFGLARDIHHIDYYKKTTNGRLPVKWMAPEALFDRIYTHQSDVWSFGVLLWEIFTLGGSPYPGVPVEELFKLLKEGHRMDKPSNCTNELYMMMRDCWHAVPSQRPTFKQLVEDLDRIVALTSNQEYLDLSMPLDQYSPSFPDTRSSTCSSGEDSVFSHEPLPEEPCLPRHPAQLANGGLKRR
In series [22] the test system is Tyrosine-protein kinase ABL1 (Homo sapiens), P00519 [T315I]. As to the kind of experiment: Inhibition of ABL T315I mutant (unknown origin) 100 nM relative to control.
Series [23] deals with Mast/stem cell growth factor receptor Kit (Homo sapiens) (UniProt P10721). As to the kind of experiment: Inhibition of C-kit (unknown origin) at 10 nM relative to control.
Sequence of Mast/stem cell growth factor receptor Kit (Homo sapiens) (P10721 whole entry): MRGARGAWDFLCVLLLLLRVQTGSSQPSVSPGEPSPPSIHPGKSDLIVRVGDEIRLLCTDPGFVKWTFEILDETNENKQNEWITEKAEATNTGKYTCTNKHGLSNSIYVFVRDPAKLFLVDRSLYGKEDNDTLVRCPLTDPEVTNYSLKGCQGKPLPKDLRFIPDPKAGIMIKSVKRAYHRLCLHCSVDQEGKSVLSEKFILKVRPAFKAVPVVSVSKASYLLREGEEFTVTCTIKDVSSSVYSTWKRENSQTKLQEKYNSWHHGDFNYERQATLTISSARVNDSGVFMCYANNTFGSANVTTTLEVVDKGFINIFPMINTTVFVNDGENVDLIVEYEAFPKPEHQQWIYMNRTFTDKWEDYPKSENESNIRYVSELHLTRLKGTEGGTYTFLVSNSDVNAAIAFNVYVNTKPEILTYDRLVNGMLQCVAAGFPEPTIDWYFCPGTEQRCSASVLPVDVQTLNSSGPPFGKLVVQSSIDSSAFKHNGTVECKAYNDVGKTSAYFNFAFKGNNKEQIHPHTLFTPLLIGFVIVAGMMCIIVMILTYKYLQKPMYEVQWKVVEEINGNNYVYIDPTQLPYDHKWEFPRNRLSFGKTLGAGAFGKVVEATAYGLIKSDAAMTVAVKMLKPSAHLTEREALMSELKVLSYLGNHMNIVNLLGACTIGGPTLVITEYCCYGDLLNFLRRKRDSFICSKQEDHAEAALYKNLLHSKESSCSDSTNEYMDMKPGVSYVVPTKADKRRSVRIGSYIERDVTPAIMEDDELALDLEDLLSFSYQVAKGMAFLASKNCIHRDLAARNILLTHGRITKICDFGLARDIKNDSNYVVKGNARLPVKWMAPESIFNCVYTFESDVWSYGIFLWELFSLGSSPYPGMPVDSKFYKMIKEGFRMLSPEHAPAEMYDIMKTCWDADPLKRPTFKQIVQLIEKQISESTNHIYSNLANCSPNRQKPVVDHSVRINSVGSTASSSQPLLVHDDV
The target of series [24] is Vascular endothelial growth factor receptor 3 (Homo sapiens) (UniProt P35916). In words: Inhibition of VEGFR3 (unknown origin) at 10 nM relative to control.
For the next series, the target named is CYP3A4 (Homo sapiens, UniProt P08684). As to the kind of experiment: Inhibition of CYP3A4 (unknown origin) at 10 uM relative to control. In kind it is ADME.
The target of the next series is CYP2C9 (Homo sapiens, UniProt P11712). As to the kind of experiment: Inhibition of CYP2C9 (unknown origin) at 10 uM relative to control. In kind it is ADME.
The target of the next series is CYP1A2 (Homo sapiens, UniProt P05177). In words: Inhibition of CYP1A2 (unknown origin) at 10 uM relative to control. Format: ADME.
Series [25] addresses Fibroblast growth factor receptor 1 (Homo sapiens) (UniProt P11362). As to the kind of experiment: Inhibition of FGFR1 (unknown origin) at 100 nM relative to control.
The target of series [26] is Vascular endothelial growth factor receptor 2 (Homo sapiens) (UniProt P35968). In words: Inhibition of human VEGFR2 at 10 nM relative to control.
In series [27] the target is Macrophage-stimulating protein receptor (Homo sapiens) (UniProt Q04912). In words: Inhibition of RON (unknown origin) at 100 nM relative to control.
Series [28] concerns the target Proto-oncogene tyrosine-protein kinase Src (Homo sapiens) (UniProt P12931). As to the kind of experiment: Inhibition of c-SRC (unknown origin) at 10 nM relative to control.
For series [29] the target is unchanged. In words: Inhibition of c-SRC (unknown origin) at 100 nM relative to control.
Series [30] concerns the target Macrophage-stimulating protein receptor (Homo sapiens) (UniProt Q04912). In words: Inhibition of RON (unknown origin) at 10 nM relative to control.
In series [31] the target is Vascular endothelial growth factor receptor 1 (Homo sapiens) (UniProt P17948). In words: Inhibition of VEGFR1 (unknown origin) at 100 nM relative to control.
Series [32] deals with Tyrosine-protein kinase receptor UFO (Homo sapiens) (UniProt P30530). As to the kind of experiment: Inhibition of AXL (unknown origin) at 10 nM relative to control.
Series [33] addresses T1, Hepatocyte growth factor receptor. In words: Inhibition of c-Met (unknown origin) by ADP-Glo kinase assay. In general terms: ADP-Glo first removes unused ATP, then detects ADP through luciferase.
Series [34] concerns the target Mast/stem cell growth factor receptor Kit (Homo sapiens) (UniProt P10721). In words: Inhibition of C-kit (unknown origin) at 100 nM relative to control.
The nature of series [35]: Metabolic stability in rat microsomes assessed as parent compound remaining measured after 30 mins. In kind it is ADME, Microsome. Particulars: read-out: Stability.
Series [36] concerns MKN-45. As to the kind of experiment: Antitumor activity against human MKN45 cells xenografted in nude mouse assessed as tumor growth inhibition at 20 mg/kg, po administered once daily for 14 days relative to control. Format: functional. Particulars: MKN-45, po, 336 h, read-out: TGI.
The target of a further series is CYP2C19 (Homo sapiens, UniProt P33261). In words: Inhibition of CYP2C19 (unknown origin) at 10 uM relative to control. Format: ADME.
Series [37] concerns the target Tyrosine-protein kinase receptor UFO (Homo sapiens) (UniProt P30530). As to the kind of experiment: Inhibition of AXL (unknown origin) at 100 nM relative to control.
Series [38] concerns the target Receptor-type tyrosine-protein kinase FLT3 (Homo sapiens) (UniProt P36888). As to the kind of experiment: Inhibition of FLT3 (unknown origin) at 100 nM relative to control.

Sequence of Proto-oncogene tyrosine-protein kinase Src (Homo sapiens) (P12931 2-536 limits assumed): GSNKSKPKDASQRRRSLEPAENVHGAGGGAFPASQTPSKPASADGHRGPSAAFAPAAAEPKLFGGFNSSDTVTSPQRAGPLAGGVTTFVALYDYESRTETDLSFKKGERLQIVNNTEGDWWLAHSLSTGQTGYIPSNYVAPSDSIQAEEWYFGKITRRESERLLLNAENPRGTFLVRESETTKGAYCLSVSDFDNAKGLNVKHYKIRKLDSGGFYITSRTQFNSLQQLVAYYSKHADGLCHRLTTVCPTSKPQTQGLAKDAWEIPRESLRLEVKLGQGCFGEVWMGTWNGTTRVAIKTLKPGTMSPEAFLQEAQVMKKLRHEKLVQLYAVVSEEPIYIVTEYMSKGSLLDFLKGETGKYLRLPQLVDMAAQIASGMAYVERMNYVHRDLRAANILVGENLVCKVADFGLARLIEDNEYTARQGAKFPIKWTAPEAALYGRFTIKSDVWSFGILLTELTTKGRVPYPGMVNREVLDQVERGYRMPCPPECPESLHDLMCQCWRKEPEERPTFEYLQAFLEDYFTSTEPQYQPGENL

Broadly, the inhibition is the change of the read-out against control, counted positive when it falls. In general, IC50 refers to the concentration that gives 50% inhibition. As for `C[C@@H](Oc1cncc(-c2cnn(C3CCNCC3)c2)c1)c1c(Cl)ccc(F)c1Cl`, the inhibition is 67% in series [1]; 47% in series [2]; -4% in [3]; 0% in series [4]; -3% in series [5]; 3% in series [6]. For the same compound, the inhibition in series [7] is 33%; in series [8] it was 31%; in series [9], 80%; in [10], 100%; in [11] it was 15%; in [12], -4%. Besides, the inhibition in [13] is -10%; in series [14] it was 43%; in [15], 0%; in series [17], 2%; in series [21], -7%; in [22], 63%. Moreover, the inhibition in [23] was 0%; in series [24] it was -5%; in series [25], -5%; in series [26] it was -4%; in series [27], 49%; in [28], -10%. The inhibition is -7% in series [29]; -9% in series [30]; -1% in series [31]; 17% in [32]; 4% in series [34]; 75% in [37]. Besides, the inhibition in [38] was determined as 8%. Also, the inhibition at 10 µM at CYP2D6 stood at 28%; at CYP3A4 it was 76%; at CYP2C9, 79%; on CYP1A2 it was 55%; at CYP2C19, 63%. Moreover, the remaining at 0.5 h in series [16] amounted to 94%; in series [19], 96%; in series [35], 85%. The TGI entry in the series with MKN-45 [18] is “Dose-dependent effect”. Further, the IC50 is 175 nM in the series on MKN-45 [20] and 6 nM in series [33]. Also, the inhibition in vivo at 20 mg/kg with MKN-45 [36] was 48%.
In the case of `C[C@@H](Oc1cncc(-c2cnn(C3CCN(CC4CC4)CC3)c2)c1)c1c(Cl)ccc(F)c1Cl`, the half-maximal inhibitory concentration (IC50) in the series with MKN-45 [20] came to 306 nM.
On to `CC(=O)OCCn1cc(-c2cnc3ccc(O[C@H](C)c4c(Cl)ccc(F)c4Cl)cc3n2)cn1`, for which, in the series with MKN-45 [20], the IC50 is 252 nM.
Take `C[C@@H](Oc1cc(-c2cnn(C3CCNCC3)c2)cnc1N)c1c(Cl)ccc(F)c1Cl` [CRIZOTINIB]: the IC50 in the series with MKN-45 [20] lay within 9.1 to 38 nM. The inhibition in vivo at 20 mg/kg with MKN-45 [36] was 29%.
Regarding `C[C@@H](Oc1ccc2ncc(-c3cnn(C)c3)nc2c1)c1c(Cl)ccc(F)c1Cl`, in the series with MKN-45 [20], the 50% inhibitory concentration (IC50) was 735 nM.
For the compound `C[C@H](Oc1cncc(-c2cnn(C3CCNCC3)c2)c1)c1c(Cl)ccc(F)c1Cl`, the figures for the half-inhibitory concentration (IC50) (in the series with MKN-45 [20]; in series [33]) were 797 nM and 92 nM, respectively.
Turning to `C[C@@H](Oc1cc(-c2cnn(C3CCNCC3)c2)cnc1F)c1c(Cl)ccc(F)c1Cl`, in the series with MKN-45 [20], the IC50 worked out at 114 nM.
In the case of `C[C@@H](Oc1cncc(-c2cnn(C3CCN(CC(N)=O)CC3)c2)c1)c1c(Cl)ccc(F)c1Cl`, the IC50 with MKN-45 [20] worked out at 113 nM.
For the compound `CC(C)N1CCC(n2cc(-c3cncc(O[C@H](C)c4c(Cl)ccc(F)c4Cl)c3)cn2)CC1`, the IC50 in the series with MKN-45 [20] was 132 nM.
Same read-out and setting: as for `C[C@@H](Oc1cncc(-c2cnn(C3CCN(S(C)(=O)=O)CC3)c2)c1)c1c(Cl)ccc(F)c1Cl`, the figure is 243 nM; as for `C[C@@H](Oc1cncc(-c2cnn(C3CCN(C)CC3)c2)c1)c1c(Cl)ccc(F)c1Cl`, 227 nM; as for `C[C@@H](Oc1ccc2ncc(-c3cnn(CCO)c3)nc2c1)c1c(Cl)ccc(F)c1Cl`, 196 nM.
Same read-out and setting: as for `CC(=O)N1CCC(n2cc(-c3cnc(F)c(O[C@H](C)c4c(Cl)ccc(F)c4Cl)c3)cn2)CC1`, the figure is 77 nM; as for `CC(=O)N1CCC(n2cc(-c3cncc(O[C@H](C)c4c(Cl)ccc(F)c4Cl)c3)cn2)CC1`, 117 nM.
